{"source": "ChEMBL document CHEMBL4680265", "about": "“Anti-tubulin agent vinorelbine inhibits metastasis of cancer cells by regulating epithelial-mesenchymal transition” (Eur J Med Chem, 2020)", "key": {"NCI-H1975 [1]": {"tested_on": "NCI-H1975", "experiment": "Cytotoxicity against human NCI-H1975 cells assessed as reduction in cell viability incubated for 48 hrs by MTT assay", "format": "functional, cell-based", "conditions": "NCI-H1975, 48 h"}, "HepG2 [2]": {"tested_on": "HepG2", "experiment": "Cytotoxicity against human HepG2 cells assessed as reduction in cell viability incubated for 48 hrs by MTT assay", "format": "functional, cell-based", "conditions": "HepG2, 48 h"}, "HCT-116 [3]": {"tested_on": "HCT-116", "experiment": "Cytotoxicity against human HCT-116 cells assessed as reduction in cell viability incubated for 48 hrs by MTT assay", "format": "functional, cell-based", "conditions": "HCT-116, 48 h"}, "NCI-H1975 [4]": {"tested_on": "NCI-H1975", "experiment": "Cytotoxicity against human NCI-H1975 cells assessed as effect on cell morphology incubated for 48 hrs by DAPI staining based fluorescence microscopy", "format": "functional", "conditions": "dose 1-100 nM"}, "HepG2 [5]": {"tested_on": "HepG2", "experiment": "Cytotoxicity against human HepG2 cells assessed as effect on cell morphology incubated for 48 hrs by DAPI staining based fluorescence microscopy", "format": "functional", "conditions": "dose 0.1-10 µM"}, "HCT-116 [6]": {"tested_on": "HCT-116", "experiment": "Cytotoxicity against human HCT-116 cells assessed as effect on cell morphology incubated for 48 hrs by DAPI staining based fluorescence microscopy", "format": "functional", "conditions": "dose 0.01-1 µM"}, "NCI-H1975 [7]": {"tested_on": "NCI-H1975", "experiment": "Inhibition of colony formation in human NCI-H1975 cells at 1 to 100 nM incubated for 3 to 4 days by crystal violet staining based assay", "format": "functional, cell-based", "conditions": "dose 1-100 nM, time 3-4 day"}, "HepG2 [8]": {"tested_on": "HepG2", "experiment": "Inhibition of colony formation in human HepG2 cells at 0.1 to 10 uM incubated for 3 to 4 days by crystal violet staining based assay", "format": "functional, cell-based", "conditions": "dose 0.1-10 µM, time 3-4 day"}, "HCT-116 [9]": {"tested_on": "HCT-116", "experiment": "Inhibition of colony formation in human HCT-116 cells at 0.01 to 1 uM incubated for 3 to 4 days by crystal violet staining based assay", "format": "functional, cell-based", "conditions": "dose 0.01-1 µM, time 3-4 day"}, "NCI-H1975 [10]": {"tested_on": "NCI-H1975", "experiment": "Induction of cell cycle arrest in human NCI-H1975 cells assessed as increase in G2/M phase accumulation at 1 nM incubated for 24 hrs by propidium iodide staining based flow cytometry analysis relative to control", "format": "functional"}, "NCI-H1975 [11]": {"tested_on": "NCI-H1975", "experiment": "Induction of cell cycle arrest in human NCI-H1975 cells assessed as increase in G2/M phase accumulation at 10 nM incubated for 24 hrs by propidium iodide staining based flow cytometry analysis relative to control", "format": "functional"}, "NCI-H1975 [12]": {"tested_on": "NCI-H1975", "experiment": "Induction of cell cycle arrest in human NCI-H1975 cells assessed as increase in G2/M phase accumulation at 100 nM incubated for 24 hrs by propidium iodide staining based flow cytometry analysis relative to control", "format": "functional"}, "HepG2 [13]": {"tested_on": "HepG2", "experiment": "Induction of cell cycle arrest in human HepG2 cells assessed as increase in G2/M phase accumulation at 0.1 to 10 uM incubated for 24 hrs by propidium iodide staining based flow cytometry analysis", "format": "functional", "conditions": "dose 0.1-10 µM"}, "HCT-116 [14]": {"tested_on": "HCT-116", "experiment": "Induction of cell cycle arrest in human HCT-116 cells assessed as increase in G2/M phase accumulation at 0.01 to 1 uM incubated for 24 hrs by propidium iodide staining based flow cytometry analysis", "format": "functional", "conditions": "dose 0.01-1 µM"}, "NCI-H1975 [15]": {"tested_on": "NCI-H1975", "experiment": "Induction of cell cycle arrest in human NCI-H1975 cells assessed as decrease in cyclin B1 level at 1 to 100 nM incubated for 24 hrs by Western blot analysis", "format": "functional, cell-based", "conditions": "dose 1-100 nM"}, "HepG2 [16]": {"tested_on": "HepG2", "experiment": "Induction of cell cycle arrest in human HepG2 cells assessed as decrease in cyclin B1 level at 0.1 to 10 uM incubated for 24 hrs by Western blot analysis", "format": "functional, cell-based", "conditions": "dose 0.1-10 µM"}, "HCT-116 [17]": {"tested_on": "HCT-116", "experiment": "Induction of cell cycle arrest in human HCT-116 cells assessed as decrease in cyclin B1 level at 0.01 to 1 uM incubated for 24 hrs by Western blot analysis", "format": "functional, cell-based", "conditions": "dose 0.01-1 µM"}, "NCI-H1975 [18]": {"tested_on": "NCI-H1975", "experiment": "Induction of apoptosis in human NCI-H1975 cells assessed as increase in early apoptotic cells at 1 to 100 nM incubated for 48 hrs by annexin V-FITC and PI staining based flow cytometry analysis", "format": "functional, cell-based", "conditions": "dose 1-100 nM"}, "NCI-H1975 [19]": {"tested_on": "NCI-H1975", "experiment": "Induction of apoptosis in human NCI-H1975 cells assessed as increase in late apoptotic cells at 1 to 100 nM incubated for 48 hrs by annexin V-FITC and PI staining based flow cytometry analysis", "format": "functional, cell-based", "conditions": "dose 1-100 nM"}, "HepG2 [20]": {"tested_on": "HepG2", "experiment": "Induction of apoptosis in human HepG2 cells assessed as increase in late apoptotic cells at 0.1 to 10 uM incubated for 48 hrs by annexin V-FITC and PI staining based flow cytometry analysis", "format": "functional, cell-based", "conditions": "dose 0.1-10 µM"}, "HCT-116 [21]": {"tested_on": "HCT-116", "experiment": "Induction of apoptosis in human HCT-116 cells assessed as increase in late apoptotic cells at 0.01 to 1 uM incubated for 48 hrs by annexin V-FITC and PI staining based flow cytometry analysis", "format": "functional, cell-based", "conditions": "dose 0.01-1 µM"}, "NCI-H1975 [22]": {"tested_on": "NCI-H1975", "experiment": "Induction of apoptosis in human NCI-H1975 cells assessed as decrease in Bcl-2 expression at 1 to 100 nM incubated for 48 hrs by Western blot analysis", "format": "functional, cell-based", "conditions": "dose 1-100 nM"}, "NCI-H1975 [23]": {"tested_on": "NCI-H1975", "experiment": "Induction of apoptosis in human NCI-H1975 cells assessed as decrease in Bcl-xl expression at 1 to 100 nM incubated for 48 hrs by Western blot analysis", "format": "functional, cell-based", "conditions": "dose 1-100 nM"}, "NCI-H1975 [24]": {"tested_on": "NCI-H1975", "experiment": "Induction of apoptosis in human NCI-H1975 cells assessed as increase in Bax expression at 1 to 100 nM incubated for 48 hrs by Western blot analysis", "format": "functional, cell-based", "conditions": "dose 1-100 nM"}, "HepG2 [25]": {"tested_on": "HepG2", "experiment": "Induction of apoptosis in human HepG2 cells assessed as decrease in Bcl-2 expression at 0.1 to 10 uM incubated for 48 hrs by Western blot analysis", "format": "functional, cell-based", "conditions": "dose 0.1-10 µM"}, "HepG2 [26]": {"tested_on": "HepG2", "experiment": "Induction of apoptosis in human HepG2 cells assessed as decrease in Bcl-xl expression at 0.1 to 10 uM incubated for 48 hrs by Western blot analysis", "format": "functional, cell-based", "conditions": "dose 0.1-10 µM"}, "HepG2 [27]": {"tested_on": "HepG2", "experiment": "Induction of apoptosis in human HepG2 cells assessed as increase in Bax expression at 0.1 to 10 uM incubated for 48 hrs by Western blot analysis", "format": "functional, cell-based", "conditions": "dose 0.1-10 µM"}, "HCT-116 [28]": {"tested_on": "HCT-116", "experiment": "Induction of apoptosis in human HCT-116 cells assessed as decrease in Bcl-2 expression at 0.01 to 1 uM incubated for 48 hrs by Western blot analysis", "format": "functional, cell-based", "conditions": "dose 0.01-1 µM"}, "HCT-116 [29]": {"tested_on": "HCT-116", "experiment": "Induction of apoptosis in human HCT-116 cells assessed as decrease in Bcl-xl expression at 0.01 to 1 uM incubated for 48 hrs by Western blot analysis", "format": "functional, cell-based", "conditions": "dose 0.01-1 µM"}, "HCT-116 [30]": {"tested_on": "HCT-116", "experiment": "Induction of apoptosis in human HCT-116 cells assessed as increase in Bax expression at 0.01 to 1 uM incubated for 48 hrs by Western blot analysis", "format": "functional, cell-based", "conditions": "dose 0.01-1 µM"}}, "note": "Active and inactive are the calls of the source. No cut-off for these calls is given here."}
{"compound": "CCC1=C[C@@H]2CN(C1)Cc1c([nH]c3ccccc13)[C@@](C(=O)OC)(c1cc3c(cc1OC)N(C)[C@H]1[C@@](O)(C(=O)OC)[C@H](OC(C)=O)[C@]4(CC)C=CCN5CC[C@]31[C@@H]54)C2", "note": "[VINORELBINE]", "values": [{"measurement": "IC50", "setting": "NCI-H1975 [1]", "value": 8, "unit": "nM"}, {"measurement": "IC50", "setting": "HepG2 [2]", "value": 110, "unit": "nM"}, {"measurement": "IC50", "setting": "HCT-116 [3]", "value": 14.9, "unit": "nM"}, {"measurement": "Activity", "setting": "NCI-H1975 [4]", "value": "Dose-dependent effect"}, {"measurement": "Activity", "setting": "HepG2 [5]", "value": "Dose-dependent effect"}, {"measurement": "Activity", "setting": "HCT-116 [6]", "value": "Dose-dependent effect"}, {"measurement": "inhibition", "setting": "NCI-H1975 [7]", "value": "Active"}, {"measurement": "inhibition", "setting": "HepG2 [8]", "value": "Active"}, {"measurement": "inhibition", "setting": "HCT-116 [9]", "value": "Active"}, {"measurement": "Activity", "setting": "NCI-H1975 [10]", "value": 17.39, "unit": "%"}, {"measurement": "Activity", "setting": "NCI-H1975 [11]", "value": 34.31, "unit": "%"}, {"measurement": "Activity", "setting": "NCI-H1975 [12]", "value": 51.85, "unit": "%"}, {"measurement": "Activity", "setting": "HepG2 [13]", "value": "Active"}, {"measurement": "Activity", "setting": "HCT-116 [14]", "value": "Active"}, {"measurement": "Activity", "setting": "NCI-H1975 [15]", "value": "Active"}, {"measurement": "Activity", "setting": "HepG2 [16]", "value": "Active"}, {"measurement": "Activity", "setting": "HCT-116 [17]", "value": "inactive"}, {"measurement": "Activity", "setting": "NCI-H1975 [18]", "value": "Active"}, {"measurement": "Activity", "setting": "NCI-H1975 [19]", "value": "Active"}, {"measurement": "Activity", "setting": "HepG2 [20]", "value": "Active"}, {"measurement": "Activity", "setting": "HCT-116 [21]", "value": "Active"}, {"measurement": "Activity", "setting": "NCI-H1975 [22]", "value": "Active"}, {"measurement": "Activity", "setting": "NCI-H1975 [23]", "value": "Active"}, {"measurement": "Activity", "setting": "NCI-H1975 [24]", "value": "Active"}, {"measurement": "Activity", "setting": "HepG2 [25]", "value": "Active"}, {"measurement": "Activity", "setting": "HepG2 [26]", "value": "Active"}, {"measurement": "Activity", "setting": "HepG2 [27]", "value": "Active"}, {"measurement": "Activity", "setting": "HCT-116 [28]", "value": "Active"}, {"measurement": "Activity", "setting": "HCT-116 [29]", "value": "Active"}, {"measurement": "Activity", "setting": "HCT-116 [30]", "value": "Active"}]}
